# From patent US7608622B2, “Imidazo[4,5-b]pyrazinone inhibitors of protein kinases” (Janssen Pharmaceutica NV, priority 2004, dated 2009)
# pIC50: −log10 of the molar value.
# Biological target: T1, Aurora-2 (Homo sapiens, UniProt O14965)
# T1 construct: autophosphorylation of Aurora-2 (residues 125-391)
# T1 sequence (O14965 125-391): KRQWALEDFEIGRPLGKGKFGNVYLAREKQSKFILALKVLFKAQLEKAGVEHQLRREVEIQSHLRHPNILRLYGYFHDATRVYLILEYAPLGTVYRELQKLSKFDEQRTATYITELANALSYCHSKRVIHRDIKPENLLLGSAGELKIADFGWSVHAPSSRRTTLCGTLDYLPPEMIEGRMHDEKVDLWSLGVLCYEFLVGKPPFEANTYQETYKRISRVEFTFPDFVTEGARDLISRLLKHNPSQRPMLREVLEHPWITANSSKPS
# Test: Aurora-2 Enzymatic Assay (ELISA-based)
# Assay type: biochemical
# Settings: phosphorylated Aurora-2 (residues 125-391), Histone H3 Ser-10 phosphorylation, averages of three independent measurements; read-out: Aurora-2 IC50 Enzyme
# Procedure: In vitro assays were run to measure potency of Aurora-2 kinase inhibition by selected compounds of Formula I.
# Aurora-2 Enzymatic Assay. An ELISA-based enzymatic assay was used to determine the compound potency for Aurora-2. In this assay, phosphorylated Aurora-2 (Pi-Aurora-2) catalyzes the ATP-dependent phosphorylation of Ser-10 of Histone H3. Pi-Aurora-2 was produced by autophosphorylation of Aurora-2 (residues 125-391) by 1 mM ATP in the presence of 10 mM MgCl2. The assay buffer used was 100 mM HEPES, pH 7.5, 1 mM DTT, 0.01% (v/v) Tween-20. Compounds were diluted in assay buffer containing 4% DMSO just prior to the assay. • Procedure. High-binding 96-well ELISA plates (Costar 9018) were coated overnight at 4° C. with 10 μg/ml human Histone H3 (Upstate) in PBS (100 μl/well). The following day, the plates were emptied and blocked with 1% BSA in PBS (150 μl/well) for 1 h at 37° C. At the end of the incubation, plates were washed 3 times with 0.01% Tween-20 in PBS (300 μl/well). 50 μl of compound were dispensed to each well followed by addition of 20 μl 10 mM MgCl2 and 20 μl 50 μM ATP (Sigma). The reaction was initiated by addition of 10 μl 30 nM Pi-Aurora-2. […] The reaction was quenched with 9 μl 50 mM EDTA and the plates were washed 5 times with 0.01% Tween-20 in PBS (300 μl/well). The phospho-histone H3 (Ser10) 6G3 monoclonal antibody (Cell Signaling) was then diluted 2,000-fold with 1% BSA in PBS, and was added to the plates (100 μl/well). Following 1 h incubation at 37° C., the plates were washed as described above. The HRP-conjugated secondary antibody (goat anti-mouse Ig(H+ L)-HRP human absorbed, Southern Biotechnology Associates, Inc.) was diluted 20,000-fold with 1% BSA in PBS and was added to the plates (100 μl/well). The plates were incubated for 1 h at 37° C. and then washed 5 times with 0.01% Tween-20 in PBS (300 μl/well). 100 μl/well TMB, SureBlue Reserve (KPL) were added. After ca. 5-6 min, each well received 100 μl 1 M HCl and the OD450 was measured with a SpectraMax Plus microplate reader (Molecular Devices). Under these conditions, absorbance values for positive and negative controls were ca. 0.1 and 1.7, respectively, and were used to define the 100% and 0% inhibition of the Aurora-2 reaction. The IC50 values reported (Table 1) are the averages of three independent measurements.
row,pIC50,Compound
1,< 6.00,"COc1cc(-c2cnc3[nH]c(=O)n(Cc4cccc5ccccc45)c3n2)cc(OC)c1OC [Compound 33, 1-Naphthalen-1-ylmethyl-6-(3,4,5-trimethoxyphenyl)-1,3-dihydro-imidazo[4,5-b]pyrazin-2-one]"
2,6.00 to 6.30,"COc1cc(-c2cnc3[nH]c(=O)n(Cc4ccc5c(c4)OCO5)c3n2)cc(OC)c1OC [Compound 34, 1-Benzo[1,3]dioxol-5-ylmethyl-6-(3,4,5-trimethoxyphenyl)-1,3-dihydroimidazo[4,5-b]pyrazin-2-one]"
3,> 6.30,"COc1cc(-c2cnc3[nH]c(=O)n(C4CCc5ccccc54)c3n2)cc(OC)c1OC (stereo not shown) [Compound 35, 1-Indan-1-yl-6-(3,4,5-trimethoxyphenyl)-1,3-dihydroimidazo[4,5-b]pyrazin-2-one]"
4,> 6.30,"COc1cc(-c2cnc3[nH]c(=O)n(Cc4cccs4)c3n2)cc(OC)c1OC [Compound 36, 1-Thiophen-2-ylmethyl-6-(3,4,5-trimethoxyphenyl)-1,3-dihydro-imidazo[4,5-b]pyrazin-2-one]"
5,> 6.30,"COc1cc(-c2cnc3[nH]c(=O)n(Cc4ccccc4Cl)c3n2)cc(OC)c1OC [Compound 37, 1-(2-Chlorobenzyl)-6-(3,4,5-trimethoxyphenyl)-1,3-dihydro-imidazo[4,5-b]pyrazin-2-one]"
6,> 6.30,"COc1cc(-c2cnc3[nH]c(=O)n(Cc4ccc(N)cc4)c3n2)cc(OC)c1OC [Compound 38, 1-(4-Aminobenzyl)-6-(3,4,5-trimethoxyphenyl)-1,3-dihydroimidazo[4,5-b]pyrazin-2-one]"
7,6.00 to 6.30,"COc1cc(-c2cnc3[nH]c(=O)n(Cc4cccc(N)c4)c3n2)cc(OC)c1OC [Compound 39, 1-(3-Aminobenzyl)-6-(3,4,5-trimethoxyphenyl)-1,3-dihydro-imidazo[4,5-b]pyrazin-2-one]"
